For series [1] the following is noted: humans; doses of up to 3000 mg infused over 3 hours, daily; cited from earlier work.
The test system of the next series is C. albicans. Briefly: Checkerboard Titration, C. albicans. The series is classed as cell-based, Candida albicans. The settings on record: PHMB with EDTA(Na4).
The subject of series [2] is blood coagulation (clotting). Briefly: Prothrombin Time (PT) Assay. The series is classed as biochemical. Particulars: concentration of TEDTA of 4 wt %; ISI 1.89. As to the method: Experiments were conducted to assess the anticoagulant capacities of PHMB, EDTA and combinations of PHMB and EDTA via a Prothrombin Time (PT) Assay. A PT assay (TM-4339-063) was conducted using a Coagulation Analyzer to obtain PT instead of manually recording the PT. Tetrasodium […]) was used (Alfa Aesar, Catalog #A17385, Lot #J9570A). […] […] […] INR is calculated as: INR=([…] sample/PTnormal control)^ISI ISI (International Sensitivity Index) indicates the sensitivity of individual thromboplastin. […] All the PTs greater than 3×the […] 1 (normal control) were replaced with 32 seconds.

The next series deals with S. aureus. Briefly: Checkerboard Titration, S. aureus. It is filed as cell-based, Staphylococcus aureus. Particulars: PHMB with EDTA(Na4). As to the method:
The following concentrations were tested: Fraction Inhibitory Concentration (FIC) is defined as the MIC of the compound in combination divided by the MIC of the compound alone. […] In order to calculate the FIC index the following calculations are performed for compounds A and B: • FIC-A=(MIC of A in combination)/(MIC of A alone) • FIC-B=(MIC of B in combination)/(MIC of […]

For another series, the system named is P. aeruginosa. Briefly: Checkerboard Titration, P. aeruginosa. The series is classed as cell-based, Pseudomonas aeruginosa. Particulars: PHMB with EDTA(Na4).
Series [3] concerns Candida Albicans (Organism #10231). Kind of series: MIC/MBC micro-dilution at pH 7, C. albicans. It is filed as cell-based. Particulars: pH of 7. The method, then: (§1) In order to determine MIC (minimum inhibitory concentration) and MBC (minimum bactericidal concentration) a National Committee on Clinical Laboratory Standards (NCCLS) micro-dilution procedure was followed. According to the procedure each formulation must be exposed to 6 log concentration of organism or the highest achievable concentration. In the current protocol 100 μL of MHB was mixed with 90 μL of formulation and 10 μL of log 8 organism or the highest achievable concentration. The concentration of the formulation was adjusted to obtain the required concentration in the final solution. The mixture was incubated at 37 degree C. for 16-24 hrs. After 16-24 hours the absorbance value was read at 600 nm. The obtained data was corrected by subtracting the appropriate blanks. Finally, the wells having an absorbance >0.1 were marked + and <0.1 were marked −. The +symbol indicated growth while −symbol indicates no growth.
(§2) Staphylococcus aureus (Organism #25923), Pseudomonas aeruginosa (Organism #27853), and Candida Albicans (Organism #10231) was obtained from ATCC. […] These solutions were then serially diluted as necessary to obtain the required concentrations.
On the technique in general: Dilution methods test growth across graded concentrations, often in twofold steps.

Series [4] relates to Pseudomonas aeruginosa (Organism #27853). Briefly: MIC/MBC micro-dilution at pH 7, P. aeruginosa. It is filed as cell-based. Particulars: pH of 7. As to the method:
as §1, §2

For series [5], the system named is Staphylococcus aureus (Organism #25923). Kind of series: MIC/MBC micro-dilution at pH 7, S. aureus. It is filed as cell-based. The settings on record: pH of 7. The method, then:
as §1, §2

For series [6] the following is noted: rabbit, in vivo; cited from earlier work.

This is an account of results in patent publication US20090170947A1, “DISINFECTANT COMPOSITIONS, METHODS AND SYSTEMS” (priority 2007, published 2009).

Structures can show the parent of a compound that is named as a salt.

As to `O=C([O-])CN(CCN(CC(=O)[O-])CC(=O)O)CC(=O)O.[Na+].[Na+]` [EDTA disodium], in [1], the Tolerability result is on record as “well tolerated”.
As for `O=C([O-])CN(CCN(CC(=O)[O-])CC(=O)[O-])CC(=O)[O-].[Na+].[Na+].[Na+].[Na+]` [EDTA(Na4), EDTA, tetrasodium salt hydrate], the “FIC of the single component (MIC in combination / MIC alone)” value with C. albicans is 0.3; with S. aureus, 0.4; in the series on P. aeruginosa it was 0.25. Besides, the “International Normalized Ratio (INR)” value in series [2] is recorded as “greater than 7.25”.
`O=C(O)CN(CCN(CC(=O)O)CC(=O)O)CC(=O)O` [EDTA, EDTA, tetrasodium salt hydrate]: the MIC in [3] is given as greater than 4.0 wt %; in series [4], less than 0.25 wt %; in series [5], less than 0.03 wt %. Moreover, the MBC in series [4] is given as less than 4.00 wt %; in [5], less than 0.13 wt %.
As to Poly(hexamethylenebiguanide) [PHMB], the NOAEL result in series [6] is listed as “NOAEL = 20 mg/kg/day”.
